Measurements reported in US5591758A, “Organic nitrates, processes for their preparation and their use in the treatment of cardiovascular diseases” (Laboratoires Hoechst, SA, priority 1991, dated 1997).
Where a name gives a salt, the structure may show the parent alone.

Key:
anesthetised dogs = test: Haemodynamic effects on anesthetised dogs; format: in vivo, dogs (labrador/harrier cross); details: dogs
Protocol: Haemodynamic effects of the compounds according to the invention on anesthetised pigs or dogs
The dogs, weighing between 16 and 26 kg, are the progeny of a labrador/harrier cross.
In the case of dogs the anesthesia is induced by sodium pentobarbitol (45 mg/jg i.v.) and maintained with an i.v. perfusion (flow rate of 8 mg/kg/h).
The pigs or dogs are placed under artificial respiration in ambient air. Analysis of the blood gases (pO2, pCO2) is carried out at regular intervals and oxygen can be supplied via the respirator, if necessary.
The haemodynamic parameters recorded include the left ventricular pressure (LVP; Millar PC350 Tip catheter inserted via the carotid artery), systemic blood pressure (BPs, BPd; full catheter in a femoral artery), the end pressure of the left ventricular diastole (LVEDP), the ventricular contractility (LVPdp/dtmax) and the heart rate (HR).
Following an equilibration period of the order of 45 minutes, the compounds studied are administered intraduodenally (i.d.) or intraveinously (i.v.) to several animals (1 to 4). The haemodynamic variables are recorded continuously for 1 to 3 hours, as a function of the period of action of the compound.
The effects of the compounds studied are shown as the absolute difference with respect to the base value (bv) measured before administration of the compounds and are shown in Table VII (a,b,c).
An antianginal activity is estimated by a fall in the BPs and the LVEDP (fall in venous return).

thoracic aorta = test: Vasorelaxant effect on isolated vessels (rat thoracic aorta rings without endothelium, precontracted with noradrenalin); design: species or system Wistar rats; details: for Emax: Rattus norvegicus, maximum inhibition of noradrenalin effect, 10^-8 to 10^-4 M substance, read-out: Maximum Relaxation; for IC50: rat aorta, 10^-7 M noradrenalin contraction
Protocol: Vasorelaxant effect of the compounds according to the invention on isolated vessels.
Adult Wistar rats weighing between 250 and 350 g are anaesthetised by intraperitoneal injection of sodium pentobarbital (30 mg/kg). The thoracic aorta is rapidly removed and placed in a refrigerated and oxygenated solution of bicarbonate buffer of the Krebs-Ringer type (composition [mM]: NaCl, 118; KCl, 4.7; CaCl2, 2.5; MgSO4, 1.2; KH2 PO4, 1.2; NaHCO3, 25.0; disodium calcium salt of EDTA, 0.026; glucose 11.1). The aorta is dissected with the aim of removing the connective tissue and then cut into 6 rings (length 5-10 mm). The endothelium is removed by moderate abrasion of the intimal surface of the aortic segments with the aid of a pair of tweezers. These segments are then placed between two hooks in an isolated organ cell filled with 25 ml of bicarbonate buffer (pH 7.4), thermostat-controlled at 37° C. and oxygenated with the aid of a 95% O2 /5% CO2 mixture (pH 7.4). One of the hooks is fixed to a fixed point, while the second is connected to a transducer with the aim of measuring the variations in isometric voltage (expressed in grams). After an equilibration period of 30 min., the segments are progressively withdrawn so as to attain the level of base voltage for which the contractor response to noradrenalin (10^-7 M) is maximum (optimum voltage; average 2 g). The absence of endothelium is verified by addition of a single concentration of acetylcholine (10^-6 M), after precontraction of the vessels by noradrenalin (10^-7 M). The integrity of the vascular smooth muscle is also verified by adding a single concentration of a vasodilator whose response is independent of the presence of the endothelium, SIN-1 (10^-5 M). After this initial procedure, the aortas are washed, equilibrated for a period of 30 min and then recontracted (10^-7 M noradrenalin). The relaxant effect of the substance to be tested is then evaluated by adding increasing concentrations of this substance (from 10^-8 to 10^-4 M). The maximum inhibition of the concentration caused by noradrenalin (expressed as a percentage) is then calculated ("maximum relaxation"). When this maximum relaxation is greater than 50%, the concentration of substance tested producing a 50% inhibition of the maximum contraction (IC50) is calculated. Table V below collates the IC50 and the maximum relaxation percentages for the various compounds tested.

Structure (SMILES) | BPs (min), period of action (anesthetised dogs; 3 mg/kg i.d.) [min] | BPs, difference to base value (anesthetised dogs; 3 mg/kg i.d.) [mmHg] | LVEDP (min), period of action (anesthetised dogs; 3 mg/kg i.d.) [min] | LVEDP, difference to base value (anesthetised dogs; 3 mg/kg i.d.) | Emax (thoracic aorta) [%] | IC50 (thoracic aorta) [µM] | other results
CSCC[C@H](NC(=O)[C@@H]1CSCN1C(=O)OC(C)(C)C)C(=O)N[C@H]1CO[C@H]2[C@@H]1OC[C@@H]2O[N+](=O)[O-] [Compound 67, 5-[[2-[[(3-t-butoxycarbonyl-4-L-thiazolidinyl)carbonyl]amino]-1-((2S)-2-(2'-thiomethyl)-ethyl)-oxoethyl]amino]-5-deoxy-2-O-nitro-1,4:3,6-dianhydro-L-iditol] | > 90 | -15 | > 90 | -1,5 mmHg | 100 | 9 | 
O=C(O[C@H]1CO[C@H]2[C@@H]1OC[C@H]2O[N+](=O)[O-])[C@@H]1CSCN1 [Compound 19, 2-O-[(4-L-Thiazolidinyl)carbonyl]-5-O-nitro-1,4:3,6-dianhydro-D-glucitol monohydrochloride] |  |  |  |  | 40 | > 100 | BPs (min), period of action (anesthetised dogs; 10 mg/kg i.v.): > 60 min; BPs, difference to base value (anesthetised dogs; 10 mg/kg i.v.): -35 mmHg; LVEDP (min), period of action (anesthetised dogs; 10 mg/kg i.v.): 0 min; LVEDP, difference to base value (anesthetised dogs; 10 mg/kg i.v.): 0,0 mmHg
CC(C)[C@H](NC(=O)OC(C)(C)C)C(=O)N[C@H]1CO[C@H]2[C@@H]1OC[C@@H]2O[N+](=O)[O-] [Compound 9, N-[(t-Butoxy)carbonyl]-L-valine amide of 5-amino-5-deoxy-2-O-nitro-1,4:3,6-dianhydro-L-iditol] | > 60 | 5 | 0 | 0,0 mmHg | 70 | 80 | 
O=C(N[C@H]1CO[C@H]2[C@@H]1OC[C@@H]2O[N+](=O)[O-])[C@@H]1CCCN1C(=O)[C@@H]1CSCN1 [Compound 70, 5-[[[(2S)-N-[(4-L-thiazolidinyl)carbonyl]-2-pyrrolidinyl]carbonyl]amino]-5-deoxy-2-O-nitro-1,4:3,6-dianhydro-L-iditol monohydrochloride] | > 90 | -30 | 0 | 0,0 mmHg | 83 | 35 | 
O=C(CNC(=O)[C@@H]1CSCN1)O[C@H]1CO[C@H]2[C@@H]1OC[C@H]2O[N+](=O)[O-] [Compound 73, 2-O-[2-[[(4-L-thiazolidinyl)carbonyl]amino]-1-oxoethyl]-5-O-nitro-1,4:3,6-dianhydro-D-glucitol monohydrochloride] |  |  |  |  | 66 | 53 | BPs (min), period of action (anesthetised dogs; 3 mg/kg i.v.): 60 min; BPs, difference to base value (anesthetised dogs; 3 mg/kg i.v.): -15 mmHg; LVEDP (min), period of action (anesthetised dogs; 3 mg/kg i.v.): 60 min; LVEDP, difference to base value (anesthetised dogs; 3 mg/kg i.v.): -2,0 mmHg
CC(C)(C)OC(=O)N1CCC[C@H]1C(=O)N[C@H]1CO[C@H]2[C@@H]1OC[C@@H]2O[N+](=O)[O-] [Compound 13, N-[(t-Butoxy)carbonyl]-L-proline amide of 5-amino-5-deoxy-2-O-nitro-1,4:3,6-dianhydro-L-iditol] | > 120 | -30 |  |  | 74 | 49 | 
CSCC[C@H](NC(=O)[C@@H]1CSCN1)C(=O)N[C@H]1CO[C@H]2[C@@H]1OC[C@@H]2O[N+](=O)[O-] [Compound 68, 5-[[2-[[(4-n-thiazolidinyl)carbonyl]amino]-1-((2S)-2-(2'-thiomethyl)-ethyl)-oxoethyl]amino]-5-deoxy-2-O-nitro-1,4:3,6-dianhydro-L-iditol monohydrochloride] |  |  |  |  | 90 | 29 | BPs (min), period of action (anesthetised dogs; 1 mg/kg i.d.): > 180 min; BPs, difference to base value (anesthetised dogs; 1 mg/kg i.d.): -30 mmHg; LVEDP (min), period of action (anesthetised dogs; 1 mg/kg i.d.): > 180 min; LVEDP, difference to base value (anesthetised dogs; 1 mg/kg i.d.): -3,0 mmHg
O=C(O[C@@H]1CO[C@H]2[C@@H]1OC[C@@H]2O[N+](=O)[O-])[C@@H]1CSCN1 [Compound 25, 5-O-[(4-L-Thiazolidinyl)carbonyl]-2-O-nitro-1,4:3,6-dianhydro-D-glucitol monohydrochloride] |  |  |  |  | 35 | > 100 | BPs (min), period of action (anesthetised dogs; 10 mg/kg i.d.): > 60 min; BPs, difference to base value (anesthetised dogs; 10 mg/kg i.d.): -30 mmHg; LVEDP (min), period of action (anesthetised dogs; 10 mg/kg i.d.): > 60 min; LVEDP, difference to base value (anesthetised dogs; 10 mg/kg i.d.): -3,0 mmHg
CC(=O)NCSC[C@H](NC(=O)OC(C)(C)C)C(=O)N[C@H]1CO[C@H]2[C@@H]1OC[C@H]2O[N+](=O)[O-] [Compound 41, S-[(Acetylamino)methyl]-N-[(t-butoxy)carbonyl]-L-cysteine amide of 2-amino-2-deoxy-5-O-nitro-1,4:3,6-dianhydro-D-glucitol] | > 180 | -25 | 0 | 0,0 mmHg | 70 | 63 | 
CC(C)[C@H](NC(=O)[C@@H]1CSCN1)C(=O)N[C@H]1CO[C@H]2[C@@H]1OC[C@@H]2O[N+](=O)[O-] [Compound 64, 5-[[2-[[(4-L-thiazolidinyl)carbonyl]amino]-1-((2S)-2-isopropyl)-oxoethyl]amino]-5-deoxy-2-O-nitro-1,4:3,6-dianhydro-L-iditol monohydrochloride] | > 180 | -25 | 150 | -2,0 mmHg | 84 | 51 | 
NCC(=O)O[C@@H]1CO[C@H]2[C@@H]1OC[C@@H]2O[N+](=O)[O-] [Compound 3, Glycine ester of 2-O-nitro-1,4:3,6-dianhydro-D-glucitol monohydrochloride] | > 60 | -10 | > 60 | -4,5 mmHg | 63 | 79 | 
CSCC[C@H](NC(=O)OC(C)(C)C)C(=O)N[C@H]1CO[C@H]2[C@@H]1OC[C@H]2O[N+](=O)[O-] [Compound 43, N-[(t-Butoxy)carbonyl]-L-methionine amide of 2-amino-2-deoxy-5-O-nitro-1,4:3,6-dianhydro-D-glucitol] |  |  |  |  | 80 | 32 | BPs (min), period of action (anesthetised dogs; 10 mg/kg i.v.): 90 min; BPs, difference to base value (anesthetised dogs; 10 mg/kg i.v.): -20 mmHg; LVEDP (min), period of action (anesthetised dogs; 10 mg/kg i.v.): 60 min; LVEDP, difference to base value (anesthetised dogs; 10 mg/kg i.v.): -1,0 mmHg
